Source: the NIST ThermoML archive (doi:10.1021/je400056z)

Test: xn = mol fraction of the nth substance listed
Conditions: Liquid, Vibrating tube method

CCCCCCCCCCCCC [tridecane] + O=C=O
Conditions | mass density [kg/m3]
323.16 K, 14000 kPa, x2 = 0.2526 | 751.2
323.16 K, 14000 kPa, x2 = 0.7549 | 788.1
323.16 K, 15000 kPa, x2 = 0.0955 | 748.5
323.16 K, 15000 kPa, x2 = 0.2526 | 752.1
323.16 K, 15000 kPa, x2 = 0.7549 | 791.5
323.16 K, 16000 kPa, x2 = 0.0955 | 749.2
323.16 K, 16000 kPa, x2 = 0.2526 | 752.9
323.16 K, 16000 kPa, x2 = 0.7549 | 794.6
323.16 K, 17000 kPa, x2 = 0.0955 | 750
323.16 K, 17000 kPa, x2 = 0.2526 | 753.7
323.16 K, 17000 kPa, x2 = 0.7549 | 798.1
323.16 K, 18000 kPa, x2 = 0.0955 | 750.7
323.16 K, 18000 kPa, x2 = 0.2526 | 754.4
323.16 K, 18000 kPa, x2 = 0.7549 | 801.2
323.16 K, 19000 kPa, x2 = 0.0955 | 751.4
323.16 K, 19000 kPa, x2 = 0.2526 | 755.2
323.16 K, 19000 kPa, x2 = 0.7549 | 804.1
323.16 K, 20000 kPa, x2 = 0.0955 | 752.1
323.16 K, 20000 kPa, x2 = 0.2526 | 755.9
323.16 K, 20000 kPa, x2 = 0.7549 | 807
323.16 K, 21000 kPa, x2 = 0.0955 | 752.8
323.16 K, 21000 kPa, x2 = 0.2526 | 756.6
323.16 K, 21000 kPa, x2 = 0.7549 | 809.5
323.16 K, 22000 kPa, x2 = 0.0955 | 753.4
323.16 K, 22000 kPa, x2 = 0.2526 | 757.3
323.16 K, 22000 kPa, x2 = 0.7549 | 812.4
323.16 K, 23000 kPa, x2 = 0.0955 | 754.1
323.16 K, 23000 kPa, x2 = 0.2526 | 758
323.16 K, 23000 kPa, x2 = 0.7549 | 815
323.16 K, 24000 kPa, x2 = 0.0955 | 754.7
323.16 K, 24000 kPa, x2 = 0.2526 | 758.7
323.16 K, 24000 kPa, x2 = 0.7549 | 817.5
323.16 K, 25000 kPa, x2 = 0.0955 | 755.3
323.16 K, 25000 kPa, x2 = 0.2526 | 759.3
323.19 K, 8000 kPa, x2 = 0.5259 | 758.8
323.19 K, 9000 kPa, x2 = 0.5259 | 760.1
323.19 K, 10000 kPa, x2 = 0.5259 | 761.4
323.19 K, 11000 kPa, x2 = 0.5259 | 762.6
323.19 K, 12000 kPa, x2 = 0.5259 | 763.8
323.19 K, 13000 kPa, x2 = 0.5259 | 764.9
323.19 K, 14000 kPa, x2 = 0.5259 | 766
323.19 K, 15000 kPa, x2 = 0.5259 | 767.2
323.19 K, 16000 kPa, x2 = 0.5259 | 768.2
323.19 K, 17000 kPa, x2 = 0.5259 | 769.3
323.19 K, 18000 kPa, x2 = 0.5259 | 770.4
323.19 K, 19000 kPa, x2 = 0.5259 | 771.4
323.19 K, 20000 kPa, x2 = 0.5259 | 772.4
323.19 K, 21000 kPa, x2 = 0.5259 | 773.3
323.19 K, 22000 kPa, x2 = 0.5259 | 774.3
323.19 K, 23000 kPa, x2 = 0.5259 | 775.3
323.19 K, 24000 kPa, x2 = 0.5259 | 776.2
323.19 K, 25000 kPa, x2 = 0.5259 | 777
333.14 K, 13000 kPa, x2 = 0.8978 | 737.1
333.14 K, 14000 kPa, x2 = 0.8978 | 745.4
333.14 K, 15000 kPa, x2 = 0.8978 | 754
333.14 K, 16000 kPa, x2 = 0.8978 | 761.2
333.14 K, 17000 kPa, x2 = 0.8978 | 767.9
333.14 K, 18000 kPa, x2 = 0.8978 | 774.1
333.14 K, 19000 kPa, x2 = 0.8978 | 779.5
333.14 K, 20000 kPa, x2 = 0.8978 | 784.8
333.14 K, 21000 kPa, x2 = 0.8978 | 789.8
333.14 K, 22000 kPa, x2 = 0.8978 | 794.7
333.14 K, 23000 kPa, x2 = 0.8978 | 799.2
333.14 K, 24000 kPa, x2 = 0.8978 | 803.5
333.14 K, 25000 kPa, x2 = 0.8978 | 807.8
333.16 K, 8000 kPa, x2 = 0.5259 | 749
333.16 K, 9000 kPa, x2 = 0.5259 | 750.4
333.16 K, 10000 kPa, x2 = 0.5259 | 751.7
333.16 K, 11000 kPa, x2 = 0.5259 | 753
333.16 K, 12000 kPa, x2 = 0.5259 | 754.2
333.16 K, 13000 kPa, x2 = 0.5259 | 755.5
333.16 K, 14000 kPa, x2 = 0.5259 | 756.7
333.16 K, 15000 kPa, x2 = 0.5259 | 757.9
333.16 K, 16000 kPa, x2 = 0.5259 | 759
333.16 K, 17000 kPa, x2 = 0.5259 | 760.2
333.16 K, 18000 kPa, x2 = 0.5259 | 761.3
333.16 K, 19000 kPa, x2 = 0.5259 | 762.4
333.16 K, 20000 kPa, x2 = 0.5259 | 763.4
333.16 K, 21000 kPa, x2 = 0.5259 | 764.5
333.16 K, 22000 kPa, x2 = 0.5259 | 765.5
333.16 K, 23000 kPa, x2 = 0.5259 | 766.5
333.16 K, 24000 kPa, x2 = 0.5259 | 767.5
333.16 K, 25000 kPa, x2 = 0.5259 | 768.5
333.28 K, 12000 kPa, x2 = 0.7549 | 762.3
333.28 K, 13000 kPa, x2 = 0.7549 | 766.5
333.28 K, 14000 kPa, x2 = 0.7549 | 769.6
333.28 K, 15000 kPa, x2 = 0.7549 | 772.6
333.28 K, 16000 kPa, x2 = 0.7549 | 775.6
333.28 K, 17000 kPa, x2 = 0.7549 | 778.6
333.28 K, 18000 kPa, x2 = 0.7549 | 781.5
333.28 K, 19000 kPa, x2 = 0.7549 | 784.5
333.28 K, 20000 kPa, x2 = 0.7549 | 787.4
333.28 K, 21000 kPa, x2 = 0.7549 | 790.4
333.28 K, 22000 kPa, x2 = 0.7549 | 793.1
333.28 K, 23000 kPa, x2 = 0.7549 | 795.7
333.28 K, 24000 kPa, x2 = 0.7549 | 798.4
333.28 K, 25000 kPa, x2 = 0.7549 | 800.8
333.3 K, 9000 kPa, x2 = 0.0955 | 736.6
333.3 K, 9000 kPa, x2 = 0.2526 | 739.5
333.3 K, 10000 kPa, x2 = 0.0955 | 737.4
333.3 K, 10000 kPa, x2 = 0.2526 | 740.4
333.3 K, 11000 kPa, x2 = 0.0955 | 738.3
333.3 K, 11000 kPa, x2 = 0.2526 | 741.4
333.3 K, 12000 kPa, x2 = 0.0955 | 739.1
333.3 K, 12000 kPa, x2 = 0.2526 | 742.3
333.3 K, 13000 kPa, x2 = 0.0955 | 739.9
333.3 K, 13000 kPa, x2 = 0.2526 | 743.1
333.3 K, 14000 kPa, x2 = 0.0955 | 740.8
333.3 K, 14000 kPa, x2 = 0.2526 | 744
333.3 K, 15000 kPa, x2 = 0.0955 | 741.6
333.3 K, 15000 kPa, x2 = 0.2526 | 744.9
333.3 K, 16000 kPa, x2 = 0.0955 | 742.3
333.3 K, 16000 kPa, x2 = 0.2526 | 745.7
333.3 K, 17000 kPa, x2 = 0.0955 | 743.1
